Source: patent publication US20250099405A1, “COMPOSITIONS, METHODS, AND DEVELOPMENT OF ARID4B INHIBITORS” (University of Kentucky Research Foundation, priority 2022, published 2025)

Target: T1, Flag-ARID4A (Homo sapiens, UniProt P29374)
T1 construct: expressed in transfected cells
T1 sequence (P29374 1-1257): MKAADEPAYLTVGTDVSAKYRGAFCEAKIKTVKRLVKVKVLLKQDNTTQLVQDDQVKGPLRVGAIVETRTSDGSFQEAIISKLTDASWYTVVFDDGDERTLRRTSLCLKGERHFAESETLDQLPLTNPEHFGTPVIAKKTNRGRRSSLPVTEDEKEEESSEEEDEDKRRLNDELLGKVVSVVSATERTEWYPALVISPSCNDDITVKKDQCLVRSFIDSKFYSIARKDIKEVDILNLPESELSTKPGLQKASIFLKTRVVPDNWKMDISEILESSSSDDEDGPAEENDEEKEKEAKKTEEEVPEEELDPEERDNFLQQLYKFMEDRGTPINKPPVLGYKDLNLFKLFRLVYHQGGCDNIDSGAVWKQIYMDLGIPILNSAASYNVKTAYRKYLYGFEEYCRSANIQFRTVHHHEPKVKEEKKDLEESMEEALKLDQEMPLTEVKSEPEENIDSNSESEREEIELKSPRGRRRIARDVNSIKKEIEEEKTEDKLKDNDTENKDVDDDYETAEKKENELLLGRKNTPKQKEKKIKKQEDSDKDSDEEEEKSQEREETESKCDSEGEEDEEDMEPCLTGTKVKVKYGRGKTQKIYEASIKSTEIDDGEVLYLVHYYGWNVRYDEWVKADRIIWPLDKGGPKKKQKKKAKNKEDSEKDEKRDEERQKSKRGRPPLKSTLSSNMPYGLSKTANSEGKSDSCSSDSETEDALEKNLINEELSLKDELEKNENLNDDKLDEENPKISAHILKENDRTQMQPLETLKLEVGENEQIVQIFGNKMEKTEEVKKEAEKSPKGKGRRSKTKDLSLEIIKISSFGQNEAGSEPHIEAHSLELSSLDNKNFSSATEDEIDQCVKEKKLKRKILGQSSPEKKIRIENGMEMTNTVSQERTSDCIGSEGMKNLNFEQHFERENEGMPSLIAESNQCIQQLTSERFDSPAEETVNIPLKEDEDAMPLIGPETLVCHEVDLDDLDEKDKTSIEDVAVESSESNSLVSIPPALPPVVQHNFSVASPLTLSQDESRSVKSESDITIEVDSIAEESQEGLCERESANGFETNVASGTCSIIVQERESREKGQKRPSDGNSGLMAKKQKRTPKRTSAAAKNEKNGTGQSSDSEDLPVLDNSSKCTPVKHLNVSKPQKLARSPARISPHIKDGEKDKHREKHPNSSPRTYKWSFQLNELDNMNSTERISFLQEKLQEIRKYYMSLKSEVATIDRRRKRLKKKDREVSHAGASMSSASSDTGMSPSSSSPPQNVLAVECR
Experiment: CETSA in cells expressing Flag-ARID4A
Assay type: cell-based
Conditions: 10 μM, 2 h
Experimental: (B-C) show cells expressing HA-ARID4B (C) or HA-ARID4BIC (D) treated or not with ARD150 (10 μM) for 2 h were used for CESTA. […] (D-E) show cells expressing HA-ARID4B (D) or Flag-ARID4A (E) treated or not with RWR-18 (10 μM) for 2 h were used for CESTA. […] Data are means±SEM from three experiments. *P<0.05, **P<0.01, ns, not significant.
Using CETSA (cellular thermal shift assay) to examine whether ARD150 or RWR-18 binds to ARID4B, MCF7 cells treated or not with ARD150 or RWR-18 for 2 h were collected, followed by heating at 46, 49, 52, 55, and 58° C. to denature and precipitate ARID4B protein, cell lysis, removal of cell debris and aggregates by centrifugation, and finally detection of remaining thermostable ARID4B protein by western blot. The ARID4B aggregation temperatures without ARD150 were determined to be 49-52° C., but shifted to 52-55° C. after treatment with ARD150 and even more so with RWR-18 (FIG. 15A-D). To determine whether ARD150 and RWR-18 targets the chromodomain of ARID4B, CESTA was performed using chromodomain deletion mutant (ARID4BAC). HEK-293T cells expressing HA-ARID4B or HA-ARID4BAC were treated or not with ARD150 (10 μM) for 2 h and processed for CESTA.

shift of aggregation temperatures of Flag-ARID4A: no shift was observed
Compound: O=C(COc1ccc(OCc2ccccc2)cc1)NCCCN1CCOCC1 [RWR-18]
